Test results from US9113629B2, “4-amino-6-(4-substituted-phenyl)-picolinates and 6-amino-2-(4-substituted-phenyl)-pyrimidine-4-carboxylates and their use as herbicides” (DOW AGROSCIENCES LLC, priority 2013, dated 2015).
Where two headings read alike, the source gives them in different places.

Columns and labels:
[1] = system: Key Broadleaf Weed and Crop Species; assay: Post-emergent Test II herbicidal activity (Table 5); type: in vivo; settings: post-emergence, 336 h, post-emergent, 14 days after application; for pest or weed control at 70 g/ha: 70 g ai/ha; for pest or weed control at 140 g/ha: 140 g ai/ha
Method in brief: (§1)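 Foliar application at 187 L/ha to greenhouse-grown seedlings (first or second true leaf); subirrigation thereafter. Visual 0–100% injury at 14 d relative to untreated plants.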

[2] = system: Key Grass and Sedge Weeds as well as Grass Crops; assay: Post-emergent Test II herbicidal activity (Table 6); type: in vivo; settings: post-emergence, 336 h; for pest or weed control at 70 g/ha: application rate 70 g ai/ha; for pest or weed control at 140 g/ha: application rate 140 g ai/ha
Method in brief: as §1

[3] = ABUTH: velvetleaf (Abutilon theophrasti), read-out: Visual Growth Reduction (%) 14 Days After Application ABUTH
[4] = AMARE: redroot pigweed (Amaranthus retroflexus), read-out: Visual Growth Reduction (%) 14 Days After Application AMARE
[5] = BRSNN: oilseed-rape, canola (Brassica napus), read-out: Visual Growth Reduction (%) 14 Days After Application BRSNN
[6] = CHEAL: lambsquarters (Chenopodium album), read-out: Visual Growth Reduction (%) 14 Days After Application CHEAL
[7] = EPHHL: wild poinsettia (Euphorbia heterophylla), read-out: Visual Growth Reduction (%) 14 Days After Application EPHHL
[8] = HELAN: sunflower (Helianthus annuus), read-out: Visual Growth Reduction (%) 14 Days After Application HELAN
[9] = VIOTR: wild pansy (Viola tricolor), read-out: Visual Growth Reduction (%) 14 Days After Application VIOTR
[10] = Triticum aestivum, TRZSS (wheat), read-out: Visual Growth Reduction (%) 14 Days After Application, TRZSS
[11] = CYPES: yellow nutsedge (Cyperus esculentus), read-out: Visual Growth Reduction (%) 14 Days After Application, CYPES
[12] = DIGSA: crabgrass (Digitaria sanguinalis), read-out: Visual Growth Reduction (%) 14 Days After Application, DIGSA
[13] = ECHCG: barnyardgrass (Echinochloa crus-galli), read-out: Visual Growth Reduction (%) 14 Days After Application, ECHCG
[14] = ORYSA: rice (Oryza sativa), read-out: Visual Growth Reduction (%) 14 Days After Application, ORYSA
[15] = SETFA: giant foxtail (Setaria faberi), read-out: Visual Growth Reduction (%) 14 Days After Application, SETFA
[16] = SORVU: grain sorghum (Sorghum vulgare), read-out: Visual Growth Reduction (%) 14 Days After Application, SORVU
[17] = ZEAMX: maize, corn (Zea mays), read-out: Visual Growth Reduction (%) 14 Days After Application, ZEAMX

For `COc1c(N)nc(-c2ccc(I)c(F)c2)nc1C(=O)O` [Compound 37, 6-Amino-2-(3-fluoro-4-iodophenyl)-5-methoxypyrimidine-4-carboxylic acid], the pest or weed control at 70 g/ha [1, 3] was 45 to 59%, the pest or weed control at 140 g/ha [1, 3] was 60 to 74% and the pest or weed control at 70 g/ha [1, 4] was 85 to 94%. For the same molecule, the pest or weed control at 140 g/ha [1, 4] was 85 to 94%, the pest or weed control at 70 g/ha [1, 5] was 95 to 100% and the pest or weed control at 140 g/ha [1, 5] was 95 to 100%. It also gave a pest or weed control at 70 g/ha [1, 6] of 95 to 100%, a pest or weed control at 140 g/ha [1, 6] of 95 to 100% and a pest or weed control at 70 g/ha [1, 7] of 95 to 100%. The pest or weed control at 140 g/ha [1, 7] was 95 to 100%, the pest or weed control at 70 g/ha [1, 8] was 85 to 94% and the pest or weed control at 140 g/ha [1, 8] was 85 to 94%. It also gave a pest or weed control at 70 g/ha [1, 9] of 95 to 100%, a pest or weed control at 140 g/ha [1, 9] of 95 to 100% and a pest or weed control at 70 g/ha [2, 10] of 45 to 59%. The pest or weed control at 140 g/ha [2, 10] was 60 to 74%, the pest or weed control at 70 g/ha [2, 11] was 0 to 29% and the pest or weed control at 140 g/ha [2, 11] was 0 to 29%. The pest or weed control at 70 g/ha [2, 12] was 45 to 59%, the pest or weed control at 140 g/ha [2, 12] was 60 to 74% and the pest or weed control at 70 g/ha [2, 13] was 75 to 84%. It also gave a pest or weed control at 140 g/ha [2, 13] of 75 to 84%, a pest or weed control at 70 g/ha [2, 14] of 0 to 29% and a pest or weed control at 140 g/ha [2, 14] of 0 to 29%. For the same molecule, the pest or weed control at 70 g/ha [2, 15] was 0 to 29%, the pest or weed control at 140 g/ha [2, 15] was 60 to 74% and the pest or weed control at 70 g/ha [2, 16] was 75 to 84%. The pest or weed control at 140 g/ha [2, 16] was 85 to 94%, the pest or weed control at 70 g/ha [2, 17] was 0 to 29% and the pest or weed control at 140 g/ha [2, 17] was 45 to 59%.

`COC(=O)c1nc(-c2ccc(OC(F)F)cc2)c(C)c(N)c1Cl` [Compound 111, Methyl 4-amino-3-chloro-6-(4-(difluoromethoxy)phenyl)-5-methylpicolinate] showed a pest or weed control at 70 g/ha [1, 3] of 30 to 44%, a pest or weed control at 140 g/ha [1, 3] of 60 to 74% and a pest or weed control at 70 g/ha [1, 4] of 0 to 29%. It also gave a pest or weed control at 140 g/ha [1, 4] of 0 to 29%, a pest or weed control at 70 g/ha [1, 5] of 0 to 29% and a pest or weed control at 140 g/ha [1, 5] of 0 to 29%. For the same molecule, the pest or weed control at 70 g/ha [1, 6] was 30 to 44%, the pest or weed control at 140 g/ha [1, 6] was 60 to 74% and the pest or weed control at 70 g/ha [1, 7] was 0 to 29%. It also gave a pest or weed control at 140 g/ha [1, 7] of 0 to 29%, a pest or weed control at 70 g/ha [1, 8] of 75 to 84% and a pest or weed control at 140 g/ha [1, 8] of 85 to 94%. For the same molecule, the pest or weed control at 70 g/ha [1, 9] was 0 to 29%, the pest or weed control at 140 g/ha [1, 9] was 0 to 29% and the pest or weed control at 70 g/ha [2, 10] was 0 to 29%. The pest or weed control at 140 g/ha [2, 10] was 0 to 29%, the pest or weed control at 70 g/ha [2, 11] was 0 to 29% and the pest or weed control at 140 g/ha [2, 11] was 0 to 29%. The pest or weed control at 70 g/ha [2, 12] was 0 to 29%, the pest or weed control at 140 g/ha [2, 12] was 0 to 29% and the pest or weed control at 70 g/ha [2, 13] was 0 to 29%. It also gave a pest or weed control at 140 g/ha [2, 13] of 0 to 29%, a pest or weed control at 70 g/ha [2, 14] of 0 to 29% and a pest or weed control at 140 g/ha [2, 14] of 0 to 29%. It also gave a pest or weed control at 70 g/ha [2, 15] of 0 to 29%, a pest or weed control at 140 g/ha [2, 15] of 0 to 29% and a pest or weed control at 70 g/ha [2, 16] of 0 to 29%. It also gave a pest or weed control at 140 g/ha [2, 16] of 0 to 29%, a pest or weed control at 70 g/ha [2, 17] of 0 to 29% and a pest or weed control at 140 g/ha [2, 17] of 0 to 29%.

Molecule `COC(=O)c1nc(-c2ccc(Br)c(F)c2)nc(N)c1OC` [Compound 171, Methyl 6-amino-2-(4-bromo-3-fluorophenyl)-5-methoxypyrimidine-4-carboxylate] has a pest or weed control at 70 g/ha [1, 3] of 75 to 84%, a pest or weed control at 140 g/ha [1, 3] of 85 to 94% and a pest or weed control at 70 g/ha [1, 4] of 85 to 94%. It also gave a pest or weed control at 140 g/ha [1, 4] of 95 to 100%, a pest or weed control at 70 g/ha [1, 5] of 85 to 94% and a pest or weed control at 140 g/ha [1, 5] of 85 to 94%. The pest or weed control at 70 g/ha [1, 6] was 85 to 94%, the pest or weed control at 140 g/ha [1, 6] was 85 to 94% and the pest or weed control at 70 g/ha [1, 7] was 95 to 100%. For the same molecule, the pest or weed control at 140 g/ha [1, 7] was 95 to 100%, the pest or weed control at 70 g/ha [1, 8] was 85 to 94% and the pest or weed control at 140 g/ha [1, 8] was 85 to 94%. It also gave a pest or weed control at 70 g/ha [1, 9] of 95 to 100%, a pest or weed control at 140 g/ha [1, 9] of 95 to 100% and a pest or weed control at 70 g/ha [2, 10] of 30 to 44%. The pest or weed control at 140 g/ha [2, 10] was 30 to 44%, the pest or weed control at 70 g/ha [2, 11] was 45 to 59% and the pest or weed control at 140 g/ha [2, 11] was 45 to 59%. It also gave a pest or weed control at 70 g/ha [2, 12] of 0 to 29%, a pest or weed control at 140 g/ha [2, 12] of 60 to 74% and a pest or weed control at 70 g/ha [2, 13] of 30 to 44%. For the same molecule, the pest or weed control at 140 g/ha [2, 13] was 60 to 74%, the pest or weed control at 70 g/ha [2, 14] was 0 to 29% and the pest or weed control at 140 g/ha [2, 14] was 0 to 29%. For the same molecule, the pest or weed control at 70 g/ha [2, 15] was 0 to 29%, the pest or weed control at 140 g/ha [2, 15] was 0 to 29% and the pest or weed control at 70 g/ha [2, 16] was 0 to 29%. It also gave a pest or weed control at 140 g/ha [2, 16] of 45 to 59%, a pest or weed control at 70 g/ha [2, 17] of 60 to 74% and a pest or weed control at 140 g/ha [2, 17] of 75 to 84%.

Work on `Nc1c(Cl)c(C(=O)O)nc(-c2ccc(C(F)(F)F)c(F)c2)c1Cl` [Compound 146] yielded a pest or weed control at 70 g/ha [1, 3] of 75 to 84%, a pest or weed control at 140 g/ha [1, 3] of 85 to 94% and a pest or weed control at 70 g/ha [1, 4] of 75 to 84%. It also gave a pest or weed control at 140 g/ha [1, 4] of 85 to 94%, a pest or weed control at 70 g/ha [1, 5] of 85 to 94% and a pest or weed control at 140 g/ha [1, 5] of 85 to 94%. It also gave a pest or weed control at 70 g/ha [1, 6] of 85 to 94%, a pest or weed control at 140 g/ha [1, 6] of 85 to 94% and a pest or weed control at 70 g/ha [1, 7] of 0 to 29%. For the same molecule, the pest or weed control at 140 g/ha [1, 7] was 0 to 29%, the pest or weed control at 70 g/ha [1, 8] was 95 to 100% and the pest or weed control at 140 g/ha [1, 8] was 95 to 100%. For the same molecule, the pest or weed control at 70 g/ha [1, 9] was 0 to 29%, the pest or weed control at 140 g/ha [1, 9] was 0 to 29% and the pest or weed control at 70 g/ha [2, 10] was 60 to 74%. It also gave a pest or weed control at 140 g/ha [2, 10] of 75 to 84%, a pest or weed control at 70 g/ha [2, 11] of 95 to 100% and a pest or weed control at 140 g/ha [2, 11] of 95 to 100%. For the same molecule, the pest or weed control at 70 g/ha [2, 12] was 60 to 74%, the pest or weed control at 140 g/ha [2, 12] was 60 to 74% and the pest or weed control at 70 g/ha [2, 13] was 75 to 84%. For the same molecule, the pest or weed control at 140 g/ha [2, 13] was 85 to 94%, the pest or weed control at 70 g/ha [2, 14] was 0 to 29% and the pest or weed control at 140 g/ha [2, 14] was 0 to 29%. For the same molecule, the pest or weed control at 70 g/ha [2, 16] was 30 to 44%, the pest or weed control at 140 g/ha [2, 16] was 30 to 44% and the pest or weed control at 70 g/ha [2, 17] was 60 to 74%. The pest or weed control at 140 g/ha [2, 17] was 60 to 74%.
